Reference: patent US20170348277A1, “CANNABINOID FORMULATION INCLUDING A V[…] OCULAR DELIVERY OF THE SAME” (priority 2017, published 2017)

Assays:
[1] = Vasodilators studied for increasing the rate of delivery of cannabinoids to a desired site of action; conditions: vasodilator in cannabinoid formulation
From the text: Various vasodilators have been studied that have the desired effect of increasing the rate of delivery of cannabinoids to a desired site of action. […] The classes of vasodilators that may be substituted for the MSM of the present invention either in a preferred combination or in isolation. These classes include: • Alpha-adrenoceptor antagonists (alpha-blockers) • Angiotensin converting enzyme (ACE) inhibitors • Angiotensin receptor blockers (ARBs) • Beta2-adrenoceptor agonists (β2-agonists) • Calcium-channel blockers (CCBs) • Centrally acting sympatholytics • Direct acting vasodilators • Endothelin receptor antagonists • Ganglionic blockers • Nitrodilators • Phosphodiesterase inhibitors • Potassium-channel openers • Renin inhibitors

[2] = oral; cited from earlier work

Substance: methylsulfonylmethane [MSM]
- increasing the rate of delivery of cannabinoids to a desired site of action [1]: sufficiently effective
- safe dose when taken orally [2]: up to 2 gm/kg of body weight per day
